The source of these data is patent publication US20100249179A1, “Farnesoid X Receptor Agonists” (SMITHKLINE BEECHAM CORPORATION, priority 2007, published 2010).

Read-outs that look alike come from different tables or passages of the source.

Assay [1] has as its system rodent models of hepatic fibrosis. The note with it: multiple rodent models; cited from earlier work.
The test system of a further assay is cultured HSCs. As to conditions: cited from earlier work.
The target in assay [2] is T1, Human FXRα Ligand Binding Domain (Homo sapiens, UniProt Q96RI1).
T1 construct: polyhistidine (pRSET-A vector leader) (N); made in house; host or cells: E. coli BL21 (DE3), pRSET-A vector
T1 sequence (Q96RI1 237-472 isoform Q96RI1-2): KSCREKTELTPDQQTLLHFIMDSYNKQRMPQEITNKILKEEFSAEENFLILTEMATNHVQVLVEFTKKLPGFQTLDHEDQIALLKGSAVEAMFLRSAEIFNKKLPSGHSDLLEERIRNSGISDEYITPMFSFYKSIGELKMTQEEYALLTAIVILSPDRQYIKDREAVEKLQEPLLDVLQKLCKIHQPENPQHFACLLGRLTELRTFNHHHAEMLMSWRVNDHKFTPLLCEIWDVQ
In words: FXR Cofactor Binding Assay (time resolved fluorescence, SRC-1 peptide recruitment). The format is biochemical. The note with it: read-out: Activity (pEC50) (converted). From the text:
Determination of a ligand mediated cofactor peptide interaction to quantify ligand binding to the nuclear receptor Farnesoid X Receptor (FXR). The method measures the ability of putative ligands to modulate the interaction between the purified bacterial expressed FXRα ligand binding domain (LBD) and a synthetic biotinylated peptide based on residues 676-700 of steroid receptor coactivator-1 (SRC-1) (LXXLL-containing domain-2 where L is the amino acid leucine and X indicates any other amino acid (LCD2), 676-700). The sequence of the SRC-1 peptide used is as published in Iannone, M. A., et al., 2001 Cytometry 44:326-337 where the N-terminus was biotinylated (B) and the C-terminus was amidated. Detection of the associated complex was measured by time resolved fluorescence (TRF). The purified LBD of FXR was labeled with biotin then mixed with stoichiometric amounts of allophycocyanin (APC) labeled streptavidin (Molecular Probes). The biotinylated peptide was then mixed with a ½ stoichiometric amount of europium labeled streptavidin (Wallac Inc). Each was then blocked with a 5 fold excess of biotin and allowed to equilibrate for 15 min. Equimolar amounts of receptor and peptide were mixed together and were allowed to equilibrate for at least 30 min prior to the addition to either a variable or constant concentrations of the sample for which the affinity is to be determined. After equilibration, the time-resolved fluorescent signal was quantitated using a fluorescent plate reader. The affinity of the test compound was estimated from a plot of fluorescence versus concentration of test compound added.
A basal level of FXR: peptide formation is observed in the absence of added ligand. Ligands that promote the complex formation induce a concentration-dependent increase in time-resolved fluorescent signal. Compounds which bind equally well to both monomeric FXR and to the FXR: peptide complex would be expected to give no change in signal, whereas ligands which bind preferentially to the monomeric receptor would be expected to induce a concentration-dependent decrease in the observed signal.
Advance Preparation: Human Farnesoid X Receptor α Ligand Binding Domain Human FXRα Ligand Binding Domain (FXRα LBD) was expressed in E. coli strain BL21 (DE3) as an amino-terminal polyhistidine tagged fusion protein. Expression was under the control of an isopropyl-β-D-thiogalactopyranoside (IPTG) inducible T7 promoter. DNA encoding this recombinant protein is subcloned into the pRSET-A expression vector (Invitrogen). The coding sequence of Human FXRα LBD was derived from Genbank accession number U 68233 (amino acids 237 to 472).
Ten-liter fermentation batches were grown in Rich PO4 media with 0.1 mg/mL Ampicillin at 25° C. for 12 hours, cooled to 9° C. and held at that temperature for 36 hours to a density of OD600=14. At this cell density, 0.25 mM IPTG is added and induction proceeded for 24 hours at 9° C., to a final OD600=16. Cells are harvested by centrifugation (20 minutes, 3500× gravity, 4° C.), and concentrated cell slurries were stored in phosphate buffered saline (PBS) at […].
Routinely, 30-40 g cell paste (equivalent to 2-3 liters of the fermentation batch) was resuspended in 200-250 mL Tris buffered saline (TBS), pH 7.2 (25 mM Tris-hydroxymethylamino methane (Tris), 150 mM sodium chloride). Cells were lysed by passing 3 times through a French Press and cell debris was removed by centrifugation (30 minutes, 20,000× gravity, 4° C.). The cleared supernatant was filtered through course pre-filters, and TBS, pH 7.2, 500 mM imidazole was added to obtain a final imidazole concentration of 50 mM. This lysate was loaded onto a column (6×8 cm) packed with Sepharose [Ni^++ charged] Chelation resin (Pharmacia) and pre-equilibrated with TBS pH 7.2/50 mM imidazole. After washing to baseline absorbance with equilibration buffer, the column was washed with one column volume of TBS pH 7.2 containing 90 mM imidazole. […]

As to `CC[C@H]1[C@@H](O)[C@@H]2[C@H](CC[C@]3(C)[C@@H]([C@H](C)CCC(=O)O)CC[C@@H]23)[C@@]2(C)CC[C@@H](O)C[C@@H]12` [Example 6EtCDCA, 6-ethyl-chenodeoxycholic acid], the hepatic fibrosis result in assay [1] was “prevent development and promote resolution”. In the assay with cultured HSCs, the “expression of fibrotic markers such as α-smooth muscle actin and α1(I) collagen” value was “decreased”. Consider `CC(C)c1onc(-c2c(Cl)cccc2Cl)c1COc1ccc(-c2ccc3c(C(=O)O)c[nH]c3c2)cn1` [Example 13, 6-[6-({[3-(2,6-Dichlorophenyl)-5-(1-methylethyl)-4-isoxazolyl]methyl}oxy)-3-pyridinyl]-1H-indole-3-carboxylic Acid], for which, in assay [2] (class symbols), the EC50 was 102 to 1000 nM. On the same count and under the same terms, the same measure for `CC(C)c1onc(-c2c(Cl)cccc2Cl)c1COc1ccc(-c2ccc3oc(C(=O)O)cc(=O)c3c2)cc1` [Example 14, 6-[4-({[3-(2,6-Dichlorophenyl)-5-(1-methylethyl)-4-isoxazolyl]methyl}oxy)phenyl]-4-oxo-4H-chromene-2-carboxylic Acid]: under 100 nM. In the case of `CC(C)c1onc(-c2c(Cl)cccc2Cl)c1COc1ccc(-c2ccc3c(C(=O)O)cc(=O)oc3c2)cc1` [Example 15, 7-[4-({[3-(2,6-Dichlorophenyl)-5-(1-methylethyl)-4-isoxazolyl]methyl}oxy)phenyl]-2-oxo-2H-chromene-4-carboxylic Acid], the EC50 in assay [2] (class symbols) is 102 to 1000 nM. The same measure, in the same setting: the figure for `CC(C)c1onc(-c2c(Cl)cccc2Cl)c1COc1ccc(-c2ccc3c(=O)cc(C(=O)O)oc3c2)cc1` [Example 16, 7-[4-({[3-(2,6-Dichlorophenyl)-5-(1-methylethyl)-4-isoxazolyl]methyl}oxy)phenyl]-4-oxo-4H-chromene-2-carboxylic Acid] is 102 to 1000 nM; for `CC(C)c1onc(-c2c(Cl)cccc2Cl)c1COc1ccc(-c2ccc3c(c2)CCCC3C(=O)O)cc1` (centres unmarked) [Example 17, 6-[4-({[3-(2,6-Dichlorophenyl)-5-(1-methylethyl)-4-isoxazolyl]methyl}oxy)phenyl]-1,2,3,4-tetrahydro-1-naphthalenecarboxylic Acid] it is 102 to 1000 nM.

As to `CC(C)c1onc(-c2c(Cl)cccc2Cl)c1COc1ccc(Nc2cccc3ccc(C(=O)O)cc23)cc1` [Example 18, 8-{[4-({[3-(2,6-Dichlorophenyl)-5-(1-methylethyl)-4-isoxazolyl]methyl}oxy)phenyl]amino}-2-naphthalenecarboxylic Acid], in assay [2] (class symbols), the EC50 was 102 to 1000 nM. For the compound `CC(C)c1onc(-c2c(Cl)cccc2Cl)c1COc1ccc(Sc2cccc3sc(C(=O)O)cc23)cc1` [Example 19, 4-{[4-({[3-(2,6-Dichlorophenyl)-5-(1-methylethyl)-4-isoxazolyl]methyl}oxy)phenyl]thio}-1-benzothiophene-2-carboxylic Acid], the EC50 in assay [2] (class symbols) was 102 to 1000 nM.

For the compound `CCOC(=O)c1noc2cc(-c3ccc(OCc4c(-c5c(Cl)cccc5Cl)noc4C(C)C)cc3)ccc12` [Example 20, Ethyl 6-[4-({[3-(2,6-dichlorophenyl)-5-(1-methylethyl)-4-isoxazolyl]methyl}oxy)phenyl]-1,2-benzisoxazole-3-carboxylate], the EC50 in assay [2] (given as numeric bound) was over 20000 nM. In the case of `CC(C)c1onc(-c2c(Cl)cccc2Cl)c1COc1ccc(-c2nc3cccc(C(=O)O)c3[nH]2)cc1` [Example 21, 2-[4-({[3-(2,6-Dichlorophenyl)-5-(1-methylethyl)-4-isoxazolyl]methyl}oxy)phenyl]-1H-benzimidazole-4-carboxylic Acid], in assay [2] (class symbols), the EC50 was 1020 to 10000 nM.
